Measured values taken from publication PMC2362650, “Phase I and pharmacokinetic study of the topoisomerase II catalytic inhibitor fostriecin” (British Journal of Cancer, 1999).
“And” between values parts separate entries of the source, which are not always exact repeats. Identical values can stand only once. Like-named read-outs stand apart in the source and are kept apart here.

Assay: Plasma and urine pharmacokinetics (HPLC-UV) in patients after 60-min IV infusion
Type: in vivo, human
Details: for half-life / Cmax / AUC / MRT: human, plasma, intravenous; for Cmax: observed value
Description: Fostriecin (CI-920) is a topoisomerase (topo) II catalytic activity inhibitor (Boritzki et al, 1988) (Figure 1). This novel class of topo II-targeting drugs is considered of potential value for treatment of patients with tumours resistant to classic topo II poisons, including anthracyclines and podophyllotoxins (Cummings and Smyth, 1993). The nuclear enzyme topo II is essential for the regulation of DNA conformation (reviewed in Osheroff et al, 1991). Central in its action is the formation of a complex with DNA. Stabilization of this complex by topo II poisons induces DNA damage and cell death (Froelich-Ammon and Osheroff, 1995). Decreased complex formation due to decreased topo II levels is considered to be an important mechanism of tumour-resistance to topo II poisons (Beck and Danks, 1991). The topo II catalytic inhibitor fostriecin is expected to have increased activity against tumour cells with low topo II levels and this was confirmed in in vitro studies (De Jong et al, 1991). […] Because of increased toxi- city of fostriecin in dogs compared to mice, a dose below one-third of the one-tenth mouse equivalent LD10, 2 mg m-2 day-1, was chosen as starting dose in humans (Clinical Brochure Fostriecin, 1991). […] We also performed an analysis of the human pharmacokinetics of fostriecin and ex vivo experiments to investigate if the plasma drug concentrations achieved were sufficient to inhibit a tenipo- side-resistant tumour cell line. The maximum tolerated dose (MTD) of fostriecin could not be established because drug supply was stopped prematurely. However, results of this study may provide a basis for continued clinical development of this agent. PATIENTS AND METHODS Patient selection, drug administration and evaluation Patient eligibility criteria were: histologically confirmed diagnosis of a solid tumour, no longer amenable to established forms of treatment; age 18-75 years; Eastern Cooperative Oncology Group (ECOG) performance status 2; life expectancy 12 weeks; no Phase I and pharmacokinetic study of the topoisomerase II catalytic inhibitor fostriecin RS de Jong1, NH Mulder1, DRA Uges2, DTh Sleijfer1, FJP Hoppener4, HJM Groen3, PHB Willemse1, WTA van der Graaf1 and EGE de Vries1 Departments of 1Medical Oncology, 2Pharmacy and Toxicology, and 3Pulmonary Diseases, University Hospital Groningen, The Netherlands; 4EORTC New Drug Development Office, Amsterdam, The Netherlands Summary We conducted a phase I and pharmacokinetic study of the topoisomerase II catalytic inhibitor fostriecin. Fostriecin was administered intravenously over 60 min on days 1-5 at 4-week intervals. Dose was escalated from 2 mg m-2 day-1 to 20 mg m-2 day-1 in 20 patients. Drug pharmacokinetics was analysed with high performance liquid chromatography with UV-detection. Plasma collected during drug administration was tested in vitro for growth inhibition of a teniposide-resistant small-cell lung cancer (SCLC) cell line. The predominant toxicities were elevated liver transaminases (maximum common toxicity criteria (CTC) grade 4) and serum creatinine (maximum CTC grade 2). […] Duration of elevated alanine-amino transferase (ALT) was dose-limiting in one patient at 20 mg m-2. Other frequent toxicities were grade 1-2 nausea/vomiting, fever and mild fatigue. […] A metabolite, most probably dephosphorylated fostriecin, was detected in plasma and urine. […] However, further escalation seems possible and is warranted to achieve potentially effective drug levels. Fostriecin has a short plasma half-life and longer duration of infusion should be considered. […]

[1] = patient no. 1, 2 mg m-2, day 1 course 1, one-compartment model
[2] = patient no. 3, 2 mg m-2, day 1 course 1, one-compartment model
[3] = patient no. 4, 2 mg m-2, day 1 course 1, one-compartment model
[4] = patient no. 5, 4 mg m-2, day 1 course 1, one-compartment model
[5] = patient no. 6, 4 mg m-2, day 1 course 1, one-compartment model
[6] = patient no. 7, 4 mg m-2, day 1 course 1, two-compartment model
[7] = patient no. 11, 6.6 mg m-2, day 1 course 1, two-compartment model
[8] = patient no. 12, 6.6 mg m-2, day 1 course 1, two-compartment model
[9] = patient no. 13, 10 mg m-2, day 1 course 1, two-compartment model
[10] = patient no. 15, 10 mg m-2, day 1 course 1, two-compartment model
[11] = patient no. 16, 12.2 mg m-2, day 1 course 1, two-compartment model
[12] = patient no. 18, 12.2 mg m-2, day 1 course 1, two-compartment model
[13] = patient no. 19, 20 mg m-2, sampling on day 1 of course 2, two-compartment model
[14] = patient no. 20, 20 mg m-2, day 1 course 1, two-compartment model

Work on `C[C@@](O)(/C=C/[C@H]1CC=CC(=O)O1)[C@@H](C[C@@H](O)\C=C/C=C\C=C\CO)OP(=O)(O)O` [fostriecin] yielded a half-life (12.2 mg, patient no. 16, 12.2 mg m-2, day 1 course 1, two-compartment model, read-out: t1/2 (terminal) (converted)) of 70.2 min, a Cmax (12.2 mg, patient no. 18, 12.2 mg m-2, day 1 course 1) of 2790 ng/mL and an AUC (12.2 mg, patient no. 18, 12.2 mg m-2, day 1 course 1, two-compartment model) of 5320 ng·h/mL. For the same compound, the MRT (12.2 mg, patient no. 18, 12.2 mg m-2, day 1 course 1, two-compartment model, read-out: MRT) was 217 min, the half-life (12.2 mg, patient no. 18, 12.2 mg m-2, day 1 course 1, two-compartment model, read-out: t1/2 (initial) (converted)) was 27.6 min and the half-life (12.2 mg, patient no. 18, 12.2 mg m-2, day 1 course 1, two-compartment model, read-out: t1/2 (terminal) (converted)) was 306 min. It also gave a Cmax (20 mg, patient no. 19, 20 mg m-2, sampling on day 1 of course 2) of 3850 ng/mL, an AUC (20 mg, patient no. 19, 20 mg m-2, sampling on day 1 of course 2, two-compartment model) of 4450 ng·h/mL and an MRT (20 mg, patient no. 19, 20 mg m-2, sampling on day 1 of course 2, two-compartment model, read-out: MRT) of 22.8 min. The half-life (20 mg, patient no. 19, 20 mg m-2, sampling on day 1 of course 2, two-compartment model, read-out: t1/2 (initial) (converted)) was 1.8 min, the half-life (20 mg, patient no. 19, 20 mg m-2, sampling on day 1 of course 2, two-compartment model, read-out: t1/2 (terminal) (converted)) was 32.4 min and the Cmax (20 mg, patient no. 20, 20 mg m-2, day 1 course 1) was 6350 ng/mL. The AUC (20 mg, patient no. 20, 20 mg m-2, day 1 course 1, two-compartment model) was 9960 ng·h/mL, the MRT (20 mg, patient no. 20, 20 mg m-2, day 1 course 1, two-compartment model, read-out: MRT) was 49.8 min and the half-life (20 mg, patient no. 20, 20 mg m-2, day 1 course 1, two-compartment model, read-out: t1/2 (initial) (converted)) was 0.6 min. The half-life (20 mg, patient no. 20, 20 mg m-2, day 1 course 1, two-compartment model, read-out: t1/2 (terminal) (converted)) was 45.6 min, the half-life (two-compartment model, 95% CI 0-0.76 h, read-out: mean plasma half-life (initial) (converted)) was 21.6 min and the MRT (two-compartment model, 95% CI 0.41-1.97 h, read-out: mean residence time (MRT)) was 71.4 min. The half-life (two-compartment model, 95% CI 0.41-2.61 h, read-out: mean plasma half-life (terminal) (converted)) was 90.6 min, the “renal excretion as share of drug elimination” value (mean, patient nos 12-20, 95% CI 10-17.6%) was 14.6% and 15% and the Cl [1] was 5.14 l h-1 m-2. For the same compound, the Vd [1] was 4.44 l m-2, the Cl [2] was 2.40 l h-1 m-2 and the Vd [2] was 1.86 l m-2. It also gave a Cl [3] of 4.11 l h-1 m-2, a Vd [3] of 2.10 l m-2 and a Cl [4] of 2.81 l h-1 m-2. For the same compound, the Vd [4] was 2.03 l m-2, the Cl [5] was 3.05 l h-1 m-2 and the Vd [5] was 2.03 l m-2. For the same compound, the Cl [6] was 2.31 l h-1 m-2, the Vd [6] was 6.76 l m-2 and the Cl [7] was 4.06 l h-1 m-2. It also gave a Vd [7] of 2.75 l m-2, a Cl [8] of 2.63 l h-1 m-2 and a Vd [8] of 4.64 l m-2. The Cl [9] was 2.97 l h-1 m-2, the Vd [9] was 3.98 l m-2 and the Cl [10] was 2.66 l h-1 m-2. The Vd [10] was 5.34 l m-2, the Cl [11] was 2.84 l h-1 m-2 and the Vd [11] was 4.80 l m-2. For the same compound, the Cl [12] was 2.32 l h-1 m-2, the Vd [12] was 17.09 l m-2 and the Cl [13] was 4.52 l h-1 m-2. It also gave a Vd [13] of 3.39 l m-2, a Cl [14] of 1.83 l h-1 m-2 and a Vd [14] of 2.01 l m-2. The “mean volume of distribution (Vd)” value (two-compartment model, 95% CI 2.16-9.11) was 5.64 l m-2, the “mean Cl (apparent total body clearance)” value (two-compartment model, 95% CI 2.24-3.57) was 2.90 l h-1 m-2 and the “mean Cl (apparent total body clearance)” value (unit conversion of 2.90 l h-1 m-2) was 48.3 ml min-1 m-2.
